Patent publication US20240374631A1, “A COMPOSITION FOR IMPROVING GUT MICROBIOTA, BEHAVIOURAL PATTERN, ALPHA-SYNUCLEIN LEVELS, SLEEP PATTERN AND/OR SERUM MELATONIN” (GN Corporation Co Ltd, priority 2021, published 2024)

Test system: gut microbiota
Experiment: Gut microbiome analysis (16S rRNA sequencing of fecal samples) in STAM model of NASH
Format: in vivo, C57BL/6J mice
Conditions: pre
Source text: The study is reported in accordance with Animal Research: Reporting of In Vivo Experiments (ARRIVE) guidelines. C57BL/6J mice were obtained from Japan SLC, Inc. (Japan). All animals used in this study were cared for under the following guidelines: Act on Welfare and Management of Animals (Ministry of the Environment, Japan, Act No. 105 of Oct. 1, 1973), standards relating to the care and management of laboratory animals and relief of pain (Notice No. 88 of the Ministry of the Environment, Japan, Apr. 28, 2006) and the guidelines for proper conduct of animal experiments (Science Council of Japan, Jun. 1, 2006). Protocol approvals were obtained from SMC Laboratories, Japan's IACUC (Study reference no: […] Mice were maintained in a specific pathogen-free (SPF) facility under controlled conditions of temperature (23±3° C.), humidity (50±20%), lighting (12-hour artificial light and dark cycles; light from 8:00 to 20:00) and air exchange. The STAM model of NASH was induced as previously described [D10]. Mice were given a single subcutaneous injection of 200 μg streptozotocin (STZ, Sigma-Aldrich, USA) solution 2 days after birth and fed with a high-fat diet (HFD, 57 kcal % fat, Cat #HFD32, CLEA Japan, Inc., Japan) from 4-9 weeks of age. All mice develop liver steatosis and diabetes and at […] mice had established steatohepatitis, histologically. Studygroups: There were five study groups, described below. Eight mice were included in each study group. Eight NASH mice were orally administered vehicle supplemented with AFO-202 Beta Glucan at a dose of 1 mg/kg in a volume of 5 mL/kg once daily from 6 to 9 weeks of age. Eight NASH mice were orally administered vehicle supplemented with Telmisartan at a dose of 10 mg/kg once daily from 6 to 9 weeks of age. Frequency: Fecal samples were collected at the 6 weeks of age (before administration) and 9 weeks of age (before sacrifice). Procedure: At 6 weeks of age, fecal samples were collected from each mouse by clean catch method. […] A sterile petri dish was placed on the bench. Gently massage the abdomen, position the bottom of mouse over a fresh petri dish, and collect 1-2 fecal pellets. At sacrifice, fecal samples were aseptically collected from cecum. The tubes with feces were placed on ice immediately. These tubes were snap frozen in liquid nitrogen and stored at -80° C. for shipping. In this analysis, the 16S rRNA sequence data acquired by the next-generation sequencer from the fecal […] was used to perform community analysis using the QIIME2 program for microbial community analysis. The raw read data in FASTQ format output from the next-generation sequencer was trimmed to remove adapter sequences and low QV regions that may be included in the data. Cutadapt was used to remove adapter sequences from DNA sequencing reads. Trimmomatic was used as read trimming tool for Illumina NGS data. The adapter sequence was trimmed using the adapter trimming program “cutadapt” if the Trimming of the region at the end of the read sequence overlapped the corresponding sequence by at least one base (mismatch tolerance: 20%). When reads containing N were present in at least one of Read1 and Read2, both Read1 and Read2 were removed. Trimming of low QV regions was performed on the read data after processing using the QV trimming program “Trimmomatic” under the following conditions. The window of 20 bases is slid from the 5' side, and the area where the average QV is less than 20 is trimmed. After trimming, only the reads with more than 50 bases remaining in both Read1 and Read2 were taken as output. The microbial community analysis based on 16S rRNA sequence was performed on the sequence data trimmed in the previous section using the microbial community analysis program “QIIME2”. The annotation program “sklearn” included in QIIME2 is used to annotate the ASV (OTU) sequences. […]

`CCCc1nc2c(C)cc(-c3nc4ccccc4n3C)cc2n1Cc1ccc(-c2ccccc2C(=O)O)cc1` [Telmisartan] was tested, and the “Abundance S24-7/—/—” value (line r81) was 327, the “Abundance Lachnospiraceae/[Ruminococcus]/gnavus” value (line r83) was 120 and the “Abundance Ruminococcaceae/Oscillospira/—” value (line r84) was 284. For the same compound, the “Abundance Ruminococcaceae/Anaerotruncus/—” value (line r85) was 638, the “Abundance Alcaligenaceae/Sutterella/—” value (line r86) was 191 and the “Abundance S24-7/—/—” value (line r87) was 394. For the same compound, the “Abundance F16/—/—” value (line r88) was 329, the “Abundance Other/Other/Other” value (line r90) was 276 and the “Abundance Lachnospiraceae/[Ruminococcus]/gnavus” value (line r91) was 168. For the same compound, the “Abundance S24-7/—/—” value (line r92) was 476, the “Abundance Rikenellaceae/—/—” value (line r93) was 259 and the “Abundance Lachnospiraceae/[Ruminococcus]/gnavus” value (line r94) was 62. For the same compound, the “Abundance Lachnospiraceae/—/—” value (line r95) was 250, the “Abundance Clostridiaceae/Other/Other” value (line r96) was 693 and the “Abundance Lachnospiraceae/—/—” value (line r97) was 78. The “Abundance Ruminococcaceae/Oscillospira/—” value (line r98) was 160, the “Abundance Enterococcaceae/Enterococcus/—” value (line r99) was 32 and the “Abundance Rikenellaceae/—/—” value (line r100) was 239. For the same compound, the “Abundance S24-7/—/—” value (line r101) was 208, the “Abundance Lactobacillaceae/Lactobacillus/reuteri” value (line r102) was 0 and the “Abundance Bacteroidaceae/Bacteroides/acidifaciens” value (line r103) was 161. For the same compound, the “Abundance Ruminococcaceae/Oscillospira/—” value (line r104) was 202, the “Abundance Enterobacteriaceae/Escherichia/coli” value (line r105) was 0 and the “Abundance Ruminococcaceae/Oscillospira/—” value (line r106) was 152. The “Abundance —/—/—” value (line r107) was 228, the “Abundance S24-7/—/—” value (line r108) was 157 and the “Abundance —/—/—” value (line r109) was 988. For the same compound, the “Abundance Other/Other/Other” value (line r110) was 463, the “Abundance Lachnospiraceae/—/—” value (line r111) was 46 and the “Abundance Lachnospiraceae/[Ruminococcus]/gnavus” value (line r112) was 148. For the same compound, the “Abundance Lachnospiraceae/—/—” value (line r113) was 390, the “Abundance Enterobacteriaceae/Klebsiella/Other” value (line r114) was 0 and the “Abundance Lachnospiraceae/—/—” value (line r115) was 76. For the same compound, the “Abundance Enterobacteriaceae/Klebsiella/—” value (line r116) was 0, the “Abundance —/—/—” value (line r117) was 0 and the “Abundance Lactobacillaceae/Lactobacillus/—” value (line r118) was 4. The “Abundance Other/Other/Other” value (line r119) was 57, the “Abundance —/—/—” value (line r120) was 209 and the “Abundance Erysipclotrichaceae/Allobaculum/—” value (line r121) was 203. For the same compound, the “Abundance —/—/—” value (line r122) was 131, the “Abundance Lachnospiraceae/—/—” value (line r123) was 207 and the “Abundance —/—/—” value (line r124) was 362. The “Abundance Other/Other/Other” value (line r125) was 58, the “Abundance Lactobacillaceae/Lactobacillus/reuteri” value (line r126) was 0 and the “Abundance Ruminococcaceae/Oscillospira/—” value (line r127) was 158. For the same compound, the “Abundance Lachnospiraceae/—/—” value (line r128) was 50, the “Abundance S24-7/—/—” value (line r130) was 64 and the “Abundance Lachnospiraceae/—/—” value (line r131) was 315. For the same compound, the “Abundance S24-7/—/—” value (line r132) was 104, the “Abundance S24-7/—/—” value (line r133) was 60 and the “Abundance Lachnospiraceae/—/—” value (line r134) was 19. The “Abundance —/—/—” value (line r135) was 28, the “Abundance Coriobacteriaceae/Adlercreutzia/—” value (line r136) was 110 and the “Abundance —/—/—” value (line r137) was 200. The “Abundance Clostidiaceae/Other/Other” value (line r138) was 0, the “Abundance Turicibacteraceae/Turicibacter/—” value (line r139) was 125 and the “Abundance Ruminococcaceae/Ruminococcus/—” value (line r140) was 193. The “Abundance Ruminococcaceae/Oscillospira/—” value (line r141) was 215, the “Abundance Dehalobacteriaceae/Dehalobacterium/—” value (line r142) was 43 and the “Abundance Staphylococcaceae/Staphylococcus/Other” value (line r143) was 110. For the same compound, the “Abundance Rikenellaceae/—/—” value (line r144) was 61, the “Abundance Lachnospiraceae/—/—” value (line r145) was 87 and the “Abundance —/—/—” value (line r146) was 60. The “Abundance Staphylococcaceae/Staphylococcus/sciuri” value (line r147) was 34, the “Abundance —/—/—” value (line r148) was 103 and the “Abundance Ruminococcaceae/Ruminococcus/—” value (line r149) was 157. The “Abundance Coriobacteriaceae/Adlercreutzia/—” value (line r150) was 101, the “Abundance Ruminococcaceae/Oscillospira/—” value (line r151) was 61 and the “Abundance Lachnospiraceae/Clostridium/Other” value (line r152) was 85. The “Abundance Lachnospiraceae/Coprococcus/—” value (line r153) was 151, the “Abundance Desulfovibrionaceae/—/—” value (line r154) was 50 and the “Abundance —/—/—” value (line r155) was 94. For the same compound, the “Abundance Lachnospiraceae/—/—” value (line r156) was 0, the “Abundance Dehalobacteriaceae/Dehalobacterium/—” value (line r157) was 41 and the “Abundance Coriobacteriaceae/Adlercreutzia/—” value (line r158) was 90. For the same compound, the “Abundance Lachnospiraceae/—/—” value (line r159) was 37, the “Abundance Lachnospiraceae/—/—” value (line r160) was 168 and the “Abundance Ruminococcaceae/Oscillospira/—” value (line r161) was 0. The “Abundance Streptococcaceae/Streptococcus/—” value (line r163) was 0, the “Abundance Lachnospiraceae/[Ruminococcus]/gnavus” value (line r164) was 83 and the “Abundance Lachnospiraceae/—/—” value (line r165) was 102. The “Abundance Lachnospiraceae/—/—” value (line r166) was 231, the “Abundance Coriobacteriaceae/Adlercreutzia/—” value (line r167) was 74 and the “Abundance Erysipelotrichaceae/Clostridium/cocleatum” value (line r169) was 0. For the same compound, the “Abundance S24-7/—/—” value (line r170) was 53, the “Abundance Lachnospiraceae/—/—” value (line r171) was 27 and the “Abundance Bacteroidaceae/Bacteroides/—” value (line r172) was 55. The “Abundance Ruminococcaceae/Oscillospira/—” value (line r173) was 59, the “Abundance Ruminococcaceae/—/—” value (line r174) was 41 and the “Abundance Lachnospiraceae/Other/Other” value (line r175) was 52. For the same compound, the “Abundance Lachnospiraceae/Dorea/—” value (line r176) was 28, the “Abundance Lachnospiraceae/—/—” value (line r177) was 0 and the “Abundance S24-7/—/—” value (line r178) was 168. For the same compound, the “Abundance Lachnospiraceae/—/—” value (line r179) was 92, the “Abundance Lactobacillaceae/Lactobaccilus/Other” value (line r180) was 0 and the “Abundance —/—/—” value (line r181) was 34. The “Abundance Ruminococcaceae/Oscillospira/—” value (line r182) was 99, the “Abundance S24-7/—/—” value (line r183) was 55 and the “Abundance S24-7/—/—” value (line r184) was 67. For the same compound, the “Abundance [Mogibacteriaceae]/—/—” value (line r185) was 36, the “Abundance Peptococcaceae/—/—” value (line r186) was 43 and the “Abundance —/—/—” value (line r187) was 13. The “Abundance —/—/—” value (line r188) was 0 and the “Abundance S24-7/—/—” value (line r189) was 76.
